Measurements reported in ChEMBL document CHEMBL1201862, “PubChem BioAssay data set” (2004).
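Following 48 hours of exposure in 96-well plates, responses at five concentrations were used to interpolate endpoints linearly. The concentration for 50% growth inhibition is given as GI50.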 Activity calls are given as the source filed them. No stated cut-off is given here; in the data, active = GI50 up to about 1.1 µM and inactive = higher.

What was measured:
Assay in all cases: inhibition of tumour cell growth, NCI panel, 48 h
[1] = test system: UACC-62
[2] = test system: SK-OV-3
[3] = test system: 786-0
[4] = test system: NCI/ADR-RES
[5] = test system: MDA-MB-231
[6] = test system: CCRF-CEM
[7] = test system: MOLT-4
[8] = test system: NCI-H460
[9] = test system: HOP-92
[10] = test system: SW-620
[11] = test system: A498
[12] = test system: IGROV-1
[13] = test system: SF-295
[14] = test system: Hs-578T
[15] = test system: HT-29
[16] = test system: SK-MEL-2
[17] = test system: DU-145
[18] = test system: BT-549
[19] = test system: HL-60
[20] = test system: SR

Row | Structure (SMILES) | GI50 [1] | GI50 [2] | GI50 [3] | GI50 [4] | GI50 [5] | GI50 [6] | GI50 [7] | GI50 [8] | GI50 [9] | GI50 [10] | GI50 [11] | GI50 [12] | GI50 [13] | GI50 [14] | GI50 [15] | GI50 [16] | GI50 [17] | GI50 [18] | GI50 [19] | GI50 [20]
1 | CC(=O)Nc1ccc(C(=O)NN2C(=O)CSC2c2ccc([N+](=O)[O-])cc2)cc1 (configuration not stated) | > 100 µM (inactive) | > 100 µM (inactive) | > 100 µM (inactive) | > 100 µM (inactive) | 75.9 µM (inactive) | > 100 µM (inactive) | > 100 µM (inactive) | > 100 µM (inactive) | > 100 µM (inactive) | > 100 µM (inactive) | > 100 µM (inactive) | > 100 µM (inactive) | > 100 µM (inactive) | > 100 µM (inactive) | > 100 µM (inactive) | > 100 µM (inactive) | > 100 µM (inactive) |  |  | 
2 | CC[C@@H](O)C[C@H]1CCC[C@@]2(C[C@@H]3OC(=O)/C=C/[C@@](C)(O)[C@@H](O)[C@H](C)[C@@H](O)[C@H](OC4CCC(N(C)C)C(C)O4)[C@@H](O)[C@](C)(O)CCCCC/C=C/[C@@H]4CC(C)(C)O[C@@]4(O)C[C@H](O2)[C@H]3C)O1 (some centres not stated) | 6.37 µM (inactive) | 14.6 µM (inactive) | 11.3 µM (inactive) |  | 17.5 µM (inactive) | 15.9 µM (inactive) | 1.91 µM (inactive) | 4.23 µM (inactive) | 13.7 µM (inactive) | 16.6 µM (inactive) | 19.9 µM (inactive) | 6.44 µM (inactive) | < 0.01 µM (active) | 12.8 µM (inactive) | 3.49 µM (inactive) | 10.5 µM (inactive) | 11.3 µM (inactive) | 12.6 µM (inactive) | 3.75 µM (inactive) | 1.06 µM (active)
3 | COC(=O)c1c(C)cccc1/C=C1\Cc2ccc(C)c(C)c2C1=O | 14.5 µM (inactive) |  | > 100 µM (inactive) |  | > 100 µM (inactive) | > 10 µM (inactive) | 93.8 µM (inactive) | > 100 µM (inactive) | 74.3 µM (inactive) | > 100 µM (inactive) | 31 µM (inactive) | > 100 µM (inactive) | > 100 µM (inactive) | > 100 µM (inactive) | > 100 µM (inactive) | > 100 µM (inactive) | > 100 µM (inactive) | > 100 µM (inactive) | > 100 µM (inactive) | 8.39 µM (inactive)
4 | O=C(COc1ccc(OCC(=O)N2C(=O)CC(=O)N(c3ccc(Cl)cc3)C2=S)cc1)N1C(=O)CC(=O)N(c2ccc(Cl)cc2)C1=S | 16.8 µM (inactive) | 35.4 µM (inactive) | 19.6 µM (inactive) | 22.9 µM (inactive) | 27.9 µM (inactive) |  | 17.9 µM (inactive) | 29.2 µM (inactive) | 20.7 µM (inactive) | 53.1 µM (inactive) | 47.3 µM (inactive) | 10.8 µM (inactive) | 34 µM (inactive) |  | 24.6 µM (inactive) | 26.3 µM (inactive) | 31.6 µM (inactive) | 23.3 µM (inactive) |  | 
5 | Cn1nc(Cc2ccc(Cl)cc2)n(N)c1=O | 39.2 µM (inactive) |  | > 100 µM (inactive) | > 100 µM (inactive) | > 100 µM (inactive) |  | > 100 µM (inactive) | > 100 µM (inactive) |  | > 100 µM (inactive) | > 100 µM (inactive) | > 100 µM (inactive) | > 100 µM (inactive) |  | > 100 µM (inactive) |  | > 100 µM (inactive) | > 100 µM (inactive) |  | 
6 | Cc1cccc(/C(Br)=C2/OC(=O)c3ccccc32)c1 | > 100 µM (inactive) | > 100 µM (inactive) | > 100 µM (inactive) |  |  | > 100 µM (inactive) | > 100 µM (inactive) | > 100 µM (inactive) | > 100 µM (inactive) | > 100 µM (inactive) | > 100 µM (inactive) | > 100 µM (inactive) | > 100 µM (inactive) | > 100 µM (inactive) | > 100 µM (inactive) |  | > 100 µM (inactive) | > 100 µM (inactive) | > 10 µM (inactive) | > 100 µM (inactive)
7 | COc1ccc(O)c2c(=O)ccccc12 | 92.3 µM (inactive) | > 100 µM (inactive) | > 100 µM (inactive) |  |  | > 100 µM (inactive) | > 100 µM (inactive) | > 100 µM (inactive) | > 100 µM (inactive) | > 100 µM (inactive) | > 100 µM (inactive) | > 100 µM (inactive) | > 100 µM (inactive) |  | > 100 µM (inactive) | > 100 µM (inactive) |  |  | > 100 µM (inactive) | > 100 µM (inactive)
8 | CN(CCC(=O)N1CC(CCl)c2ccc([N+](=O)[O-])cc21)CCC(=O)N1CC(CCl)c2ccc([N+](=O)[O-])cc21 (configuration not stated) | 12.3 µM (inactive) | 29.6 µM (inactive) | 10.9 µM (inactive) |  | 16.7 µM (inactive) | 15.9 µM (inactive) | 4.25 µM (inactive) | 24.7 µM (inactive) |  | 15.6 µM (inactive) | 19.3 µM (inactive) |  | 13.7 µM (inactive) | 2.85 µM (inactive) | 11.7 µM (inactive) | 13.2 µM (inactive) | 31.5 µM (inactive) | 23.6 µM (inactive) |  | 1.77 µM (inactive)
9 | CSc1nc2c(c(=O)[nH]1)N=C(c1ccc([N+](=O)[O-])cc1)CC(c1ccccc1)N2 (configuration not stated) | 27.4 µM (inactive) |  | 34.7 µM (inactive) | 30 µM (inactive) | 32.3 µM (inactive) | 29.2 µM (inactive) | 31.3 µM (inactive) |  | > 100 µM (inactive) | 22.9 µM (inactive) | > 100 µM (inactive) | 32.7 µM (inactive) | 51.1 µM (inactive) |  | 20.3 µM (inactive) | 28.3 µM (inactive) | 86.1 µM (inactive) | 37.7 µM (inactive) | 14.7 µM (inactive) | 62.4 µM (inactive)
10 | COc1cc2c(cc1OC)C1c3ccccc3CCN1CC2 (configuration not stated) | 58.1 µM (inactive) | > 100 µM (inactive) | > 100 µM (inactive) | 95.7 µM (inactive) | 68.7 µM (inactive) | > 100 µM (inactive) | 78.3 µM (inactive) | 94.4 µM (inactive) | 59.3 µM (inactive) | 63.2 µM (inactive) | > 100 µM (inactive) | 53.3 µM (inactive) | 82.6 µM (inactive) | 58.2 µM (inactive) | 28.5 µM (inactive) | > 100 µM (inactive) | > 100 µM (inactive) |  | 30.4 µM (inactive) | > 100 µM (inactive)
11 | O=C1OC(c2ccco2)=N/C1=C\c1cccc([N+](=O)[O-])c1 | > 100 µM (inactive) | > 100 µM (inactive) | > 100 µM (inactive) |  | > 100 µM (inactive) | > 100 µM (inactive) | > 100 µM (inactive) | > 100 µM (inactive) | > 100 µM (inactive) | > 100 µM (inactive) | > 100 µM (inactive) | > 100 µM (inactive) | > 100 µM (inactive) | > 100 µM (inactive) | > 100 µM (inactive) | > 100 µM (inactive) | > 100 µM (inactive) | > 100 µM (inactive) | > 100 µM (inactive) | > 100 µM (inactive)
12 | COc1cc2c[n+]3ccc4cc(OC)c(OC)cc4c3cc2cc1O | > 100 µM (inactive) | > 100 µM (inactive) | > 100 µM (inactive) |  |  | > 100 µM (inactive) | > 100 µM (inactive) | > 100 µM (inactive) | > 100 µM (inactive) | > 100 µM (inactive) | > 100 µM (inactive) | > 100 µM (inactive) | > 100 µM (inactive) |  | > 100 µM (inactive) | > 100 µM (inactive) |  |  | > 100 µM (inactive) | > 100 µM (inactive)
13 | COc1ccc(N(C(=O)NCCO)c2ccccc2)cc1 | > 100 µM (inactive) | > 100 µM (inactive) | > 100 µM (inactive) | > 100 µM (inactive) | > 100 µM (inactive) | > 100 µM (inactive) | > 100 µM (inactive) | > 100 µM (inactive) | > 100 µM (inactive) | > 100 µM (inactive) | > 100 µM (inactive) | > 100 µM (inactive) | > 100 µM (inactive) | > 100 µM (inactive) | > 100 µM (inactive) | > 100 µM (inactive) | > 100 µM (inactive) |  | > 100 µM (inactive) | > 100 µM (inactive)
14 | COc1cc(O)c2c(c1)O[C@@H]1OCC[C@H]21 | > 100 µM (inactive) | > 100 µM (inactive) | > 100 µM (inactive) |  |  | > 100 µM (inactive) | > 100 µM (inactive) | > 100 µM (inactive) | > 100 µM (inactive) | > 100 µM (inactive) | > 100 µM (inactive) | > 100 µM (inactive) | > 100 µM (inactive) |  | > 100 µM (inactive) | > 100 µM (inactive) |  |  | > 100 µM (inactive) | > 100 µM (inactive)
15 | O=c1c2cc(-c3ccccc3)cnc2sn1-c1ccc([N+](=O)[O-])cc1 | 17.7 µM (inactive) | 26.9 µM (inactive) | 34.5 µM (inactive) | 32.7 µM (inactive) | 41.3 µM (inactive) | 19 µM (inactive) | 71.3 µM (inactive) | 37.3 µM (inactive) | 20.6 µM (inactive) | 94.8 µM (inactive) | 23.7 µM (inactive) | 29.6 µM (inactive) | 27 µM (inactive) |  | 68.2 µM (inactive) | 35.6 µM (inactive) | 61.4 µM (inactive) | 52.8 µM (inactive) | 37.8 µM (inactive) | > 100 µM (inactive)
16 | Cn1c(=O)c2c(no[n+]2[O-])c2ccccc21 | 16.7 µM (inactive) | 33 µM (inactive) | 15.5 µM (inactive) | 20.8 µM (inactive) | 19.7 µM (inactive) | 12.8 µM (inactive) | 10.5 µM (inactive) | 17.8 µM (inactive) | 20.2 µM (inactive) | 20 µM (inactive) | 31.9 µM (inactive) | 7.24 µM (inactive) | 21.6 µM (inactive) | 23.3 µM (inactive) | 17.5 µM (inactive) | 12.4 µM (inactive) |  | 15 µM (inactive) |  | 5 µM (inactive)
